Active and inactive are the calls of the source.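 The calls were made as follows: active = IC50 below 100 µM in the TR-FRET assay, unless also active in the caspase-3 counter assay; inactive = the rest, including compounds also active in caspase-3.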
Target: Caspase-3 (Homo sapiens) (UniProt P42574)
Assay: caspase-3 inhibitors as false-positive filter, SAR follow-up, counter-screen for UBC13 polyubiquitin inhibitor project, biochemical, luminescence, Caspase-Glo 3/7, set 3 (AID 602207)
Conditions: recombinant caspase-3, Caspase-Glo luminescence, 60 min

Sequence of Caspase-3 (Homo sapiens) (P42574 whole entry, looked up): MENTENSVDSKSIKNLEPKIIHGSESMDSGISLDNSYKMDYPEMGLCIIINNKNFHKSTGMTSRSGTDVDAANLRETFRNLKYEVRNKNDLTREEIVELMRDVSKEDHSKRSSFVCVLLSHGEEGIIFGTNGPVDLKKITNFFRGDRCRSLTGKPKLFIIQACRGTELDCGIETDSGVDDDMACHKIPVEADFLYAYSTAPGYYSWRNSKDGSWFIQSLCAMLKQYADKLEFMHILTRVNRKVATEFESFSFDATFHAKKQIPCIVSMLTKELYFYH

IC50	Compound
> 100 µM (inactive)	Cc1cc(Cl)ccc1NC(=O)C1CCN(c2ncnc3c2nc2n3CCCCC2)CC1
> 100 µM (inactive)	Cc1ccc(NC(=O)C2CCN(c3ncnc4c3nc3n4CCCCC3)CC2)cc1F
> 100 µM (inactive)	CC1CN(S(=O)(=O)c2ccc(NC(=O)CCCCCN3C(=O)c4ccccc4C3=O)cc2)CC(C)O1 (centres undefined)
> 100 µM (inactive)	Cc1ccc(NC(=O)C2CCN(c3ncnc4c3nc3n4CCCCC3)CC2)cc1C
> 100 µM (inactive)	Cc1ccc(NC(=O)C2CCN(c3ncnc4c3nc3n4CCCCC3)CC2)c(Cl)c1
> 100 µM (inactive)	c1ccc(CN2CCN(c3ncnc4c3nc3n4CCCC3)CC2)cc1
> 100 µM (inactive)	O=C(CCCCCN1C(=O)c2ccccc2C1=O)NCCc1ccccc1
> 100 µM (inactive)	Fc1ccccc1N1CCN(c2ncnc3c2nc2n3CCCC2)CC1
> 100 µM (inactive)	COc1ccc(Cl)cc1NC(=O)C1CCN(c2ncnc3c2nc2n3CCCCC2)CC1
> 100 µM (inactive)	c1nc(N2CCC(N3CCCCC3)CC2)c2nc3n(c2n1)CCCC3
> 100 µM (inactive)	Cc1ccc(Cl)cc1N1CCN(c2ncnc3c2nc2n3CCCC2)CC1
> 100 µM (inactive)	COc1cc(Cl)c(C)cc1NC(=O)C1CCN(c2ncnc3c2nc2n3CCCCC2)CC1
> 100 µM (inactive)	CCOc1ccc(CCNC(=O)CCCCCN2C(=O)c3ccccc3C2=O)cc1OCC
> 100 µM (inactive)	Cc1c(Cl)cccc1NC(=O)C1CCN(c2ncnc3c2nc2n3CCCCC2)CC1
> 100 µM (inactive)	COc1cc(OC)c(NC(=O)C2CCN(c3ncnc4c3nc3n4CCCCC3)CC2)cc1Cl
> 100 µM (inactive)	O=C(Nc1ccc(CN2CCCCC2)cc1)C1CCN(c2ncnc3c2nc2n3CCCCC2)CC1
> 100 µM (inactive)	O=C(Nc1cc(F)ccc1F)C1CCN(c2ncnc3c2nc2n3CCCCC2)CC1
> 100 µM (inactive)	COc1ccc(NC(=O)C2CCN(c3ncnc4c3nc3n4CCCCC3)CC2)cc1Cl
> 100 µM (inactive)	O=C(Nc1cccc(Cl)c1)C1CCN(c2ncnc3c2nc2n3CCCCC2)CC1
